The text below walks through data of patent publication US6939534B2, “Method to treat pulmonary hypoplasia in the newborn” (GenoMed, LLC, priority 2001, dated 2005).

The conditions of series [1]: inhaled; cited from earlier work.
For another series, the system named is type II pneumocytes. Conditions: applied to type II pneumocytes in culture; cited from earlier work.
Series [2] can be described thus: Stability under acidification (pH 1-2) and heating (100° C. for 5 min). The class given is physicochemical. Conditions: acidification to pH 1-2, heating to 100° C. for 5 min. As for the experimental part:
Since the EGF receptor can be activated by either EGF or transforming growth factor-α (TGF-α), and TGF-α is important in fetal development, and is also elaborated by the distal nephron, the EGF and TGF-α content of human amniotic fluid was measured, using specific radioimmunoassays and immunoprecipitation and immunoblotting. […] EGF, but not TGF-α, is stable under these conditions. […] In neonates, mature EGF (6 kD) is the predominant form in urine.
No significant concentration (<0.6 ng/ml) of TGF-α or EGF in human amniotic fluid was detectable directly by RIA or RRA.

The conditions of series [3]: animal models; cited from earlier work.

For the compound `[N]=O` [inhaled nitric oxide, nitric oxide], in series [1], the half-life result is “very short”.
As to epidermal growth factor [EGF], the production of surfactant result in the series on type II pneumocytes was “stimulates production of surfactant”. Moreover, the stability result in series [2] was “stable”. Also, in series [3], the toxicity entry is “no toxicity”.
